Measured values published in patent US8187822B2, “Methods to identify modulators” (Givaudan S.A., priority 2007, dated 2012).
“Also recorded” adds a separate entry of the source. Like-named read-outs stand apart in the source and are kept apart here. Blank lines part the entries; values can stand above or below the molecule they belong to.

Key:
TAS2R44 = biological target: T1, TAS2R44 (Homo sapiens, UniProt P59538, L162M); assay: Fluo-4 calcium assay, HEK293T cells expressing Gα16-gustducin44 and TAS2R44; assay type: cell-based; settings: for TAS2R44 ΔF/F0: 0.02% DMSO; for Sucralose ΔF/F0 / Sucralose + test cpd A ΔF/F0: TAS2R44 expressing cells; for Sucralose + test cpd A ΔF/F0: 25 μM test cpd A
T1 construct: RSS tag (first 45 amino acids of rat somatostatin receptor subtype 3, plus EcoRI site) (N); expressed in transfected cells
T1 sequence (P59538 with tags, fused parts or gaps L162M): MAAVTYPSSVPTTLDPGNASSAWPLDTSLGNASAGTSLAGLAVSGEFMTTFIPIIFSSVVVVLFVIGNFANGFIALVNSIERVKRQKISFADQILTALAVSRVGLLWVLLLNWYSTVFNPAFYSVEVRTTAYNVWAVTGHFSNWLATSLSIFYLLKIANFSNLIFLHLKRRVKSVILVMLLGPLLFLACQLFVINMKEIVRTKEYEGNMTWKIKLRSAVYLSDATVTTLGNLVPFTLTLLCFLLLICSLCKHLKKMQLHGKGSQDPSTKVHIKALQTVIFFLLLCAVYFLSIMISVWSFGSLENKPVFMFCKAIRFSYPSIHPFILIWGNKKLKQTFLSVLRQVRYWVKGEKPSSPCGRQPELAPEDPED
Experimental: Cell lines that stably expresses a SABR (TAS2R44, TAS2R1, TAS2R10) was generated by transfecting pcDNA3.1Zeo-SABR into HEK293T/Gα16-gustducin 44 cells (both formed as described in example 1). The host cell line HEK-293T is commercially available from the American Tissue Culture Collection (ATCC), ATCC®# CRL-11268.
The expression of TAS2R44 was evaluated by testing for the presence of a functional response to the known TAS2R44 agonist saccharin (as described in WO 2004/029087) in addition to sucralose, which was determined via automated calcium imaging on the FLIPR-TETRA™ (Molecular Devices, Sunnyvale, Calif., US) as described in example 3. One clone was selected resulting in the HEK293T/Gα16-gustducin 44/TAS2R44 cell line.
Fluo-4AM (Invitrogen, Carlsbad, Calif., US) is a fluorescent indicator of intracellular calcium dynamics (change in concentration) and allows monitoring changes in the calcium concentration, particularly an increase in response to receptor activation occurring after agonist exposure.
(§1) At day 0, the HEK293T cell line expressing Gα16-gustducin44 and a TAS2R bitter taste receptor formed as described in examples 2b or 2c was seeded in antibiotic-free growth medium (standard DMEM with 10% (v/v) heat-inactivated fetal bovine serum, 2 mM L-glutamine[…]) into black wall/clear bottom 96-well plates, coated with poly(ethylenimine) (0.005% v/v) at a concentration of 15,000 cells per well and incubated for 48 hours in humidified atmosphere (37° C., 5% CO2).
(§2) At the time of the assay, the growth medium was discarded and the cells were in humidified atmosphere (37° C., 5% CO2) for 1 hour with 50 μl of loading buffer consisting of 1.5 μM Fluo-4 AM and […] probenicid (Sigma-Aldrich, St. Louis, Mo., US) in DMEM.
(§3) Afterwards, the 96-well plate was washed 5 times with 100 μl of assay buffer (130 mM NaCl, 5 mM KCl, 10 mM HEPES, 2 mM CaCl2, and 5 mM dextrose, pH 7.4) per well, using an automated plate washer (BioTek). The plate was further incubated for 30 minutes at room temperature in the dark to allow for complete de-esterification of the Fluo-4. Afterwards the plate was washed 5 times with 100 μl of assay buffer per well, and reconstituted with 100 μl of assay buffer per well.
(§4) For assay reading, the plate was placed in a Fluorometric Imaging Plate Reader (FLIPR) (FLIPR-TETRA™, Molecular Devices, Sunnyvale, Calif., US), and receptor activation was initiated by addition of 100 μl of a twofold concentrated agonist stock solution (to give the desired agonist end concentration when added to the 100 microliter assay buffer volume), which was prepared in assay buffer.
(§5) Fluorescence was continuously monitored for 20 seconds to give a signal baseline (averaged to give F0) prior to agonist addition and for 120 seconds after agonist addition. The change in signal divided by F0 gives ΔF/F0 indicated in the table, with ΔF being the maximum signal occurring within the 120 seconds minus the minimum signal (occurring within the 120 seconds after agonist addition.
All data was collected from at least two independent experiments each carried out in triplicate.
A concentration-response analysis was performed and EC50 values were calculated by nonlinear regression using the function f(x)=(a−d)/(1+(x/C)^nh)+d; with a=minimum signal, d=maximum signal, nh=hill coefficient, C=EC50, and x=agonist concentration. EC50 is the molar concentration of an agonist which produces 50% of the maximum possible effective response for that agonist.
The obtained calcium signals were corrected for the response of cells expressing only the G Protein α subunit (Gα16-gustducin44) and normalized to the fluorescence of cells prior to the stimulus using ΔF/F0 (Fmax−Fmin/F0). […]

[1] = system: cells expressing only Gα16gustducin44 but no TAS2 receptor; assay: Fluo-4 calcium assay, negative control cells without bitter receptor; assay type: cell-based; settings: for Neg. Control ΔF/F0: 0.02% DMSO
Experimental: HEK293T/Gα16-gustducin 44 cells were used; they are formed as described in WO 2004/055048. The host cell line HEK-293T is commercially available from the American Tissue Culture Collection (ATCC), ATCC®# CRL-11268
as §1, §2, §3, §4, §5
The obtained calcium signals were corrected for the response of cells expressing only the G Protein α subunit (Gα16-gustducin44) and normalized to the fluorescence of cells prior to the stimulus using ΔF/F0 (Fmax−Fmin/F0).
To confirm that the cell line formed in example 2c stably expresses the bitter taste receptor TAS2R44, a concentration-response curve for saccharin, a known agonist of TAS2R44, was generated. […] The standard deviation (+/−STD) is also indicated.
As a negative control to determine unspecific signals, each of the applied concentrations of sucralose was applied to cells expressing only Gα16gustducin44.
As a negative control, each agonist and each agonist with the antagonist/test compound (test cpd A) is applied to cells expressing only Gal 6gustducin44 but no TAS2 receptor (see results in table 7 herein below).

EC50 (TAS2R44; agonist alone, stable TAS2R44 cell line (Examples 4, 5), read-out: calculated EC50 value): 16.7 ± 1.01 mM | EC50 (TAS2R44; agonist sucralose alone, TAS2R44 (Example 9), read-out: EC50 Agonist): 36.3 ± 5.7 mM | TAS2R44 ΔF/F0 (TAS2R44; sucralose 0.3906 mM): 0.023 | TAS2R44 ΔF/F0 (TAS2R44; sucralose 0.7813 mM): 0.025 | TAS2R44 ΔF/F0 (TAS2R44; sucralose 1.5625 mM): 0.026 | TAS2R44 ΔF/F0 (TAS2R44; sucralose 3.1250 mM): 0.043 | TAS2R44 ΔF/F0 (TAS2R44; sucralose 6.2500 mM): 0.059 | TAS2R44 ΔF/F0 (TAS2R44; sucralose 12.5000 mM): 0.109 | TAS2R44 ΔF/F0 (TAS2R44; sucralose 25.0000 mM): 0.197 | TAS2R44 ΔF/F0 (TAS2R44; sucralose 50.0000 mM): 0.256 | TAS2R44 ΔF/F0 (TAS2R44; sucralose 100.0000 mM): 0.260 | Sucralose ΔF/F0 (TAS2R44; sucralose alone 0.3906 mM (0.02% DMSO control of Example 9)): 0.046 | Sucralose ΔF/F0 (TAS2R44; sucralose alone 0.7813 mM (0.02% DMSO control of Example 9)): 0.038 | Sucralose ΔF/F0 (TAS2R44; sucralose alone 1.5625 mM (0.02% DMSO control of Example 9)): 0.042 | Sucralose ΔF/F0 (TAS2R44; sucralose alone 3.1250 mM (0.02% DMSO control of Example 9)): 0.030 | Sucralose ΔF/F0 (TAS2R44; sucralose alone 6.2500 mM (0.02% DMSO control of Example 9)): 0.027 | Sucralose ΔF/F0 (TAS2R44; sucralose alone 12.5000 mM (0.02% DMSO control of Example 9)): 0.051 | Sucralose ΔF/F0 (TAS2R44; sucralose alone 25.0000 mM (0.02% DMSO control of Example 9)): 0.110 | Sucralose ΔF/F0 (TAS2R44; sucralose alone 50.0000 mM (0.02% DMSO control of Example 9)): 0.192 | Sucralose ΔF/F0 (TAS2R44; sucralose alone 100.0000 mM (0.02% DMSO control of Example 9)): 0.352
SMILES: OC[C@H]1O[C@H](O[C@]2(CCl)O[C@H](CCl)[C@@H](O)[C@@H]2O)[C@H](O)[C@@H](O)[C@H]1Cl [Sucralose, sucralose]
agonist activity at TAS2R44 (calcium signaling), in words (TAS2R44; cells stably expressing human TAS2R44): significant increase in calcium signaling | signal in negative control, in words ([1]; host cells expressing only Gα16-gustducin44): No significant change | Neg. Control ΔF/F0 ([1]; sucralose 0.3906 mM): 0.014 | Neg. Control ΔF/F0 ([1]; sucralose 0.7813 mM): 0.014 | Neg. Control ΔF/F0 ([1]; sucralose 1.5625 mM): 0.017 | Neg. Control ΔF/F0 ([1]; sucralose 3.1250 mM): 0.012 | Neg. Control ΔF/F0 ([1]; sucralose 6.2500 mM): 0.017 | Neg. Control ΔF/F0 ([1]; sucralose 12.5000 mM): 0.016 | Neg. Control ΔF/F0 ([1]; sucralose 25.0000 mM): 0.016 | Neg. Control ΔF/F0 ([1]; sucralose 50.0000 mM): 0.018 | Neg. Control ΔF/F0 ([1]; sucralose 100.0000 mM): 0.021 | Sucralose ΔF/F0 ([1]; sucralose alone 100.0000 mM, cells without bitter receptor (Example 9)): −0.179

Sucralose + test cpd A ΔF/F0 (TAS2R44; sucralose 0.3906 mM): 0.011 | Sucralose + test cpd A ΔF/F0 (TAS2R44; sucralose 0.7813 mM): 0.010 | Sucralose + test cpd A ΔF/F0 (TAS2R44; sucralose 1.5625 mM): 0.016 | Sucralose + test cpd A ΔF/F0 (TAS2R44; sucralose 3.1250 mM): 0.005 | Sucralose + test cpd A ΔF/F0 (TAS2R44; sucralose 6.2500 mM): 0.000 | Sucralose + test cpd A ΔF/F0 (TAS2R44; sucralose 12.5000 mM): −0.015 | Sucralose + test cpd A ΔF/F0 (TAS2R44; sucralose 25.0000 mM): −0.035 | Sucralose + test cpd A ΔF/F0 (TAS2R44; sucralose 50.0000 mM): −0.025 | Sucralose + test cpd A ΔF/F0 (TAS2R44; sucralose 100.0000 mM): 0.107
SMILES: CC1=CCC(C/C=C/C(=O)O)C1(C)C (stereo not shown) [test cpd A, (E)-4-(2,2,3-trimethylcyclopent-3-enyl)but-2-enoic acid]
effect on the response of TAS2R44 to sucralose, in words (TAS2R44; test compound at 25 μM): inhibited; also recorded: inhibit the response of a SABTR to sucralose | Sucralose + test cpd A ΔF/F0 ([1]; 25 μM test cpd A, sucralose 100.0000 mM, cells without bitter receptor): −0.175
